Measurements taken from patent US7462600B2, “Macrolides” (Pfizer Inc, priority 2004, dated 2008).
Values after ≈ are worked out from the molar mass of the structure shown. Like-named read-outs stand apart in the source and are kept apart here.

Experiments:
Type in all cases: cell-based
[1] = tested on: Streptococcus pneumoniae 1016; test: MIC, microtiter broth dilution (NCCLS M100-S14), S. pneumoniae 1016 (susceptible)
How it was run: (§1)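 Where available, resistant strains were tested alongside the susceptible parent they derive from. The MIC, determined by tray-based broth dilution and NCCLS M100-S14 interpretation, served as the comparison value.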

[2] = tested on: Streptococcus pyogenes 1079; test: MIC, microtiter broth dilution (NCCLS M100-S14), S. pyogenes 1079 (ermB)
How it was run: as §1

[3] = tested on: Haemophilus influenzae 1218; test: MIC, microtiter broth dilution (NCCLS M100-S14), H. influenzae 1218 (susceptible)
How it was run: as §1

[4] = tested on: Streptococcus pneumoniae 1175; details: microtiter broth dilution
How it was run: as §1

[5] = tested on: Streptococcus pneumoniae 1095; details: microtiter broth dilution
How it was run: as §1

[6] = S. pneumoniae 1016 (susceptible)
[7] = H. influenzae 1218 (susceptible)

Row | Compound | MIC S. pneumo. 1016 [1, 6] [µg/mL] | MIC S. pyogenes 1079 ([2]; S. pyogenes 1079 (ermB)) [µg/mL] | MIC H. influenzae 1218 [3, 7] [µg/mL] | MIC S. pneumo. 1175 ([4]; S. pneumoniae 1175 (mefA)) [µg/mL] | MIC S. pneumo. 1095 ([5]; S. pneumoniae 1095 (ermB)) [µg/mL] | MIC S. pneumo. 1016 ([1]; Streptococcus pneumoniae 1016) [µg/mL] | MIC S. pyogenes 1079 ([2]; Streptococcus pyogenes 1079) [µg/mL] | MIC H. influenzae 1218 ([3]; Haemophilus influenzae 1218) [µg/mL] | MIC S. pneumo. 1175 ([4]; Streptococcus pneumoniae 1175) [µg/mL] | MIC S. pneumo. 1095 ([5]; Streptococcus pneumoniae 1095) [µg/mL]
1 | CCC1OC(=O)C(C)C(=O)C(C)C(OC2OC(C)CC(N(C)C)C2O)C(C)(OC)CC(C)C(=O)C(C)C2N(CC3CCCN3C(=O)c3ccc(-n4cccn4)nc3)C(=O)OC12C.O=CO (centres unmarked) [10.13] | <0.06 | >64.00 | 16 | 0.5 | 0.5 |  |  |  |  | 
2 | CC[C@H]1OC(=O)[C@H](C)C(=O)[C@H](C)[C@@H](O[C@@H]2O[C@H](C)C[C@H](N(C)C)[C@H]2O)[C@](C)(OC)C[C@@H](C)C(=O)[C@H](C)[C@H]2N(CC3(O)CN(S(=O)(=O)c4ccc5[nH]c(=O)oc5c4)C3)C(=O)O[C@]12C [7.16] | <0.06 | >64.00 | 1 (≈ 1.12 µM) | 4 (≈ 4.47 µM) | 64 (≈ 71.5 µM) |  |  |  |  | 
3 | CC[C@H]1OC(=O)[C@H](C)C(=O)[C@H](C)[C@@H](O[C@@H]2O[C@H](C)C[C@H](N(C)C)[C@H]2O)[C@](C)(OC)C[C@@H](C)C(=O)[C@H](C)[C@H]2N(C[C@H]3CCCN3C(=O)c3cccc4ncsc34)C(=O)O[C@]12C.O=CO [10.22] | <0.06 | 64 | 2.5 | 2 | 0.12 |  |  |  |  | 
4 | CCC1OC(=O)C(C)C(=O)C(C)C(OC2OC(C)CC(N(C)C)C2O)C(C)(OC)CC(C)C(=O)C(C)C2N(C3CN(S(=O)(=O)c4ccc5sc(C)nc5c4)C3)C(=O)OC12C (centres unmarked) [Example 3.90, 3-descladinosyl-11,12-dideoxy-6-O-methyl-3-oxo-12,11-(oxycarbonyl-(1-(2-methylbenzo[d]thiazole-5-sulfonyl)-azetidin-3-yl)-imino)-erythromycin A] |  |  |  |  |  | <0.06 | 8 (≈ 9.1 µM) | 0.25 (≈ 0.284 µM) | <0.06 | <0.06
5 | CCC1OC(=O)C(C)C(=O)C(C)C(OC2OC(C)CC(N(C)C)C2O)C(C)(OC)CC(C)C(=O)C(C)C2N(CC3CN(Cc4cccc5cccnc45)C3)C(=O)OC12C.O=CO (centres unmarked) [4.36] |  |  |  |  |  | <0.06 | >64.00 | <0.06 | <0.06 | 0.25
6 | CCC1OC(=O)C(C)C(=O)C(C)C(OC2OC(C)CC(N(C)C)C2O)C(C)(OC)CC(C)C(=O)C(C)C2N(C3CN(Cc4ccncc4Cl)C3)C(=O)OC12C (centres unmarked) [Example 1.79, 3-descladinosyl-11,12-dideoxy-6-O-methyl-3-oxo-12,11-(oxycarbonyl-(1-(3-chloropyridine-4-methyl)-azetidin-3-yl)-imino)-erythromycin A] |  |  |  |  |  | <0.063 | 4 (≈ 5.04 µM) | 1 (≈ 1.26 µM) | <0.063 | <0.063
7 | CCC1OC(=O)C(C)C(=O)C(C)C(OC2OC(C)CC(N(C)C)C2O)C(C)(OC)CC(C)C(=O)C(C)C2N(CC3CCCN3C(=O)c3cccc4ccncc34)C(=O)OC12C (centres unmarked) [10.37] | <0.06 | 16 (≈ 18.8 µM) | 0.5 (≈ 0.588 µM) | <0.06 | <0.06 |  |  |  |  | 
8 | CCC1OC(=O)C(C)C(=O)C(C)C(OC2OC(C)CC(N(C)C)C2O)C(C)(OC)CC(C)C(=O)C(C)C2N(C3CN(S(=O)(=O)c4ccc(F)cc4)C3)C(=O)OC12C (centres unmarked) [Example 3.09, 4-fluorobenzenesulfonyl] |  |  |  |  |  | <0.06 | 16 (≈ 19.4 µM) | 0.25 (≈ 0.303 µM) | 0.25 (≈ 0.303 µM) | <0.06
9 | CCC1OC(=O)C(C)C(=O)C(C)C(OC2OC(C)CC(N(C)C)C2O)C(C)(OC)CC(C)C(=O)C(C)C2N(C3CCN(Cc4cccc5cnccc45)C3)C(=O)OC12C [Example 9.07, 3-descladinosyl-11,12-dideoxy-6-O-methyl-3-oxo-12,11-(oxycarbonyl-(1-((isoquinolin-5-yl)-methyl)-(R)-pyrrolidin-3-yl)-imino)erythromycin A] | <0.06 | 2 (≈ 2.43 µM) | 1 (≈ 1.22 µM) | 0.12 (≈ 0.146 µM) | <0.06 |  |  |  |  | 
10 | CCC1OC(=O)C(C)C(=O)C(C)C(OC2OC(C)CC(N(C)C)C2O)C(C)(OC)CC(C)C(=O)C(C)C2N(C3CN(S(=O)(=O)c4ccc(Oc5cccnc5)cc4)C3)C(=O)OC12C (centres unmarked) [Example 3.27, 4-(pyridin-3-yloxy) benzenesulfonyl] |  |  |  |  |  | <0.06 | 32 (≈ 35.5 µM) | 1 (≈ 1.11 µM) | <0.06 | <0.06
11 | CCC1OC(=O)C(C)C(=O)C(C)C(OC2OC(C)CC(N(C)C)C2O)C(C)(OC)CC(C)C(=O)C(C)C2N(CC3CCCN3Cc3cccnc3OC)C(=O)OC12C (centres unmarked) [12.02] | <0.06 | >64.00 | 16 (≈ 19.6 µM) | 8 (≈ 9.79 µM) | 8 (≈ 9.79 µM) |  |  |  |  | 
12 | CCC1OC(=O)C(C)C(=O)C(C)C(OC2OC(C)CC(N(C)C)C2O)C(C)(OC)CC(C)C(=O)C(C)C2N(CC3CN(Cc4c(C)ccc5nc[nH]c45)C3)C(=O)OC12C.O=CO (centres unmarked) [Example 4.44, 3-descladinosyl-11,12-dideoxy-6-O-methyl-3-oxo-12,11-(oxycarbonyl-(1-((6-methyl-1H-benzo[d]imidazol-7-yl)-methyl)-(azetidin-3-yl)-methyl)-imino)-erythromycin A] |  |  |  |  |  | <0.06 | 8 | 0.25 | <0.06 | 0.5
13 | CCC1OC(=O)C(C)C(=O)C(C)C(OC2OC(C)CC(N(C)C)C2O)C(C)(OC)CC(C)C(=O)C(C)C2N(CC3CCCN3Cc3ccno3)C(=O)OC12C (centres unmarked) [12.04] | <0.06 | >64.00 | 2 (≈ 2.57 µM) | 1 (≈ 1.29 µM) | 4 (≈ 5.15 µM) |  |  |  |  | 
